Article PMC5940854, “Nitrothiophene carboxamides, a novel narrow spectrum antibacterial series: Mechanism of action and Efficacy” (Scientific Reports, 2018)
In brackets after ≈: the same amount, converted by molar mass. Read-outs that look alike come from different tables or passages of the source.

Assays:
E. coli ∆tolC JW5503-1 = assay: MIC, E. coli ∆tolC; type: cell-based; settings: Escherichia coli, read-out: MIC tolC
Method: (§1) The inoculum used for all the experiments is derived from a single seed lot that is maintained as glycerol stocks at −80 °C and are sub cultured on LB plate for isolated colonies. Single colony of each strain is grown in M9 medium. All test compound stocks and dilutions are prepared in DMSO. Serial two-fold dilutions of compounds are prepared separately, with the concentrations ranging from 2 mg/mL to 0.015 mg/mL. To 150 µl (3–7 × 10^5 CFU/ml) of bacterial culture in 96 well microtitre plates, 3 μL compound from each of the dilutions is added to respective wells to obtain final concentrations ranging from 40 µg/mL to 0.3 µg/mL of the test compounds. Media control, culture control and appropriate reference drug controls are included. […] Growth is monitored by checking absorbance at 600 nm (A600). […] The samples from MIC and above concentrations are plated for MBC (Minimum Bactericidal Concentration). The samples are diluted 1:10 and plated on LB agar plates. […] The killing kinetics is determined by enumerating survivors at various time points following compound exposure. E. coli cells (~10^7 CFU/ml; A600 of 0.1) are treated with various concentrations (40 µg/mL to 0.3 µg/mL) of compounds in a 96-well microtitre plate. At various time intervals (0 to 8 h), 30 μl volumes of treated cultures are serially diluted and plated on LB agar plates. […] Data is expressed as the log10 CFU for each drug treatment.

[1] = test system: wild-type E. coli CGSC#7636 (BW25113); assay: MIC, wild-type E. coli; type: cell-based; settings: for MIC: Escherichia coli, read-out: MIC WT
Method: as §1

NfsB = target: T1, NfsB (Escherichia coli, UniProt P38489); assay: Nitroreductase activity assay, NfsB; type: biochemical, E. coli; settings: 20 μM compound, 40 μM NADH, 70 nM NfsB; slope of initial velocity
T1 construct: His-tag; made in house; host or cells: E. coli BL21(DE3), pET28a (pET-nfsB)
T1 sequence (P38489 whole entry): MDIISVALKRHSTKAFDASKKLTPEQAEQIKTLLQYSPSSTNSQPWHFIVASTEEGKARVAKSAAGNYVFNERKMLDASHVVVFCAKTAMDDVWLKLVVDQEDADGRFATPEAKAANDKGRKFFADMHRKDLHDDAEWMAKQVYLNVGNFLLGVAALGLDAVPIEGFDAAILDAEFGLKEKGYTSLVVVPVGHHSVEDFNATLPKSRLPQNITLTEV
Method: Enzyme reducing each of the substrates are measured by monitoring the concomitant oxidation of NADPH by NfsA and NADH by NfsB in a fluorescence based assay. The reduction in fluorescence due to the NADH oxidation (excitation 350 nm, emission 460 nm) and NADPH oxidation (excitation 340 nm, emission 485 nm) is recorded using a TECAN Infinite M200Pro spectrophotometer, in half area solid black microtiter plates. This change in fluorescence directly corelates to the reduction of the nitro-compounds in the reaction. The NfsA assays is performed by initiating the reactions with 40 μM NADPH and 10 nM NfsA in 50 mM Tris-HCl (pH 7.4), 5 mM EDTA against 20 μM substrate (5 μl of compounds/substrate dissolved in 100% DMSO) in a total reaction volume of 100 μl at 25 °C. Similarly, the NfsB assay is also performed by initiating the reactions with 40 μM NADH and 70 nM NfsB in 50 mM Tris-HCl (pH 7.4), 5 mM EDTA against 20 μM substrate in a total reaction volume of 100 μl. […] All reactions are performed in replicates of two or more and the fluorescence measurements are made at 10 second intervals for 5–10 minutes.
Low solubility of the compounds/substrates under the NfsA and NfsB assay conditions precluded determination of their Km. […] The relative fluorescence units (RFU) obtained due to NADPH (excitation 340 nm, emission 485 nm) or NADH (excitation 350 nm, emission 460 nm) oxidation of the first 90 sec reaction is used to compute the slopes using linear regression analysis on GraphPad Prism. Appropriate blank reactions are included to account for background fluorescence/quenching from each of the components such as DMSO, the compound itself and auto-oxidation of NADPH or NADH. Activity of NfsB with a known substrate such as nitrofurantoin is used as a benchmark to plot the relative activities with all the test compounds.

[2] = test system: E. coli ∆nfsAB & ∆acrB+nfnB; set-up: unit not given beside the values
Method: as §1

[3] = test system: Klebsiella pneumoniae ATCC13883; assay: MIC, Klebsiella pneumoniae; type: cell-based; settings: for MIC Klebsiella pneumoniae: ATCC13883; for fold lower potency in comparison to E. coli WT MIC: WT K. pneumoniae ATCC strain
Method: as §1

SMILES | MIC (E. coli ∆tolC JW5503-1) | MIC ([1]; BW25113, Table S11) | NfsB activity (rate of compound conversion) (NfsB) | MIC ∆nfsAB & ∆acrB+nfnB [2] | MIC Klebsiella pneumoniae [3] | fold lower potency in comparison to E. coli WT MIC [3] | MIC ([1]; BW25113, E. coli WT BW25113) | MIC WT ([1]; E. coli WT BW25113)
COc1cc(-c2csc(NC(=O)c3ccc([N+](=O)[O-])s3)n2)ccc1Cl [compound 20, N-(4-(4-chloro-3-methoxyphenyl)thiazol-2-yl)-5-nitrothiophene-2-carboxamide] | 0.3 µg/mL (≈ 0.758 µM) | 1.25 µg/mL (≈ 3.16 µM) | 3.50 µM/min | 0.6 | 10 µg/mL (≈ 25.3 µM) | 4-8 fold |  | 
O=C1CN(/N=C/c2ccc([N+](=O)[O-])o2)C(=O)N1 [nitrofurantoin, reference compound] |  |  | 3.50 µM/min |  |  |  | 2.5 µg/mL (≈ 10.5 µM) | 
O=C(Nc1nc(-c2ccc(F)cc2F)cs1)c1ccc([N+](=O)[O-])s1 [compound 12, N-(4-(2,4-difluorophenyl)thiazol-2-yl)-5-nitrothiophene-2-carboxamide] | 0.15 µg/mL (≈ 0.408 µM) | 0.6 µg/mL (≈ 1.63 µM) | 6.26 µM/min | 0.3 | 2.5 µg/mL (≈ 6.81 µM) | 4-8 fold | 0.6 µg/mL (≈ 1.63 µM) | 
Cc1sc(NC(=O)c2ccc([N+](=O)[O-])s2)nc1-c1ccccc1 [compound 7, N-(5-Methyl-4-phenylthiazol-2-yl)-5-nitrothiophene-2-carboxamide] | 1.25 µg/mL (≈ 3.62 µM) |  | 6.17 µM/min |  |  |  | > 40 µg/mL | >40 µg/mL
O=C(Nc1nc(-c2ccc(F)cc2)cs1)c1ccc([N+](=O)[O-])s1 [compound 15, N-(4-(4-Fluorophenyl)thiazol-2-yl)-5-nitrothiophene-2-carboxamide] | 0.6 µg/mL (≈ 1.72 µM) | 1.25 µg/mL (≈ 3.58 µM) | 7.64 µM/min | 0.6 | 5 µg/mL (≈ 14.3 µM) | 4-8 fold | 1.25 µg/mL (≈ 3.58 µM) | 
